Values after ≈ are worked out from the molar mass of the structure shown.
Tests used:
[1] = system: Listeria monocytogenes; assay: Antibacterial activity against Listeria monocytogenes isolated from humans harboring cat gene; format: functional
[2] = system: Listeria monocytogenes; assay: Antibacterial activity against Listeria monocytogenes isolated from humans harboring lde gene
[3] = system: Listeria monocytogenes; assay: Antibacterial activity against Listeria monocytogenes isolated from humans with putative chromosomal mutation; format: functional
[4] = system: Listeria monocytogenes; assay: Antibacterial activity against Listeria monocytogenes isolated from humans harboring tet(M) gene; format: functional
[5] = system: Listeria monocytogenes; assay: Antibacterial activity against Listeria monocytogenes isolated from humans harboring int-tn gene; format: functional
[6] = system: Listeria monocytogenes; assay: Antibacterial activity against Listeria monocytogenes isolated from humans harboring putative ribosomal mutation; format: functional
[7] = system: Listeria monocytogenes; assay: Antibacterial activity against Listeria monocytogenes isolated from humans harboring mutant dfrD gene

## O=C(N[C@H](CO)[C@H](O)c1ccc([N+](=O)[O-])cc1)C(Cl)Cl [CHLORAMPHENICOL]
[1]
  MIC: 48 µg/mL (≈ 149 µM)

## O=C(O)c1cn(C2CC2)c2cc(N3CCNCC3)c(F)cc2c1=O [CIPROFLOXACIN]
[2]
  MIC: > 6 µg/mL

## CC[C@H]1OC(=O)[C@H](C)[C@@H](O[C@H]2C[C@@](C)(OC)[C@@H](O)[C@H](C)O2)[C@H](C)[C@@H](O[C@@H]2O[C@H](C)C[C@H](N(C)C)[C@H]2O)[C@](C)(O)C[C@@H](C)C(=O)[C@H](C)[C@@H](O)[C@]1(C)O [ERYTHROMYCIN]
[3]
  MIC: 256 µg/mL (≈ 349 µM)

## CN(C)c1ccc(O)c2c1C[C@H]1C[C@H]3[C@H](N(C)C)C(O)=C(C(N)=O)C(=O)[C@@]3(O)C(O)=C1C2=O [MINOCYCLINE]
[4]
  MIC: 8 µg/mL (≈ 17.5 µM)
[5]
  MIC: 8 µg/mL (≈ 17.5 µM)

## CN[C@@H]1[C@H](O[C@H]2[C@H](O[C@H]3[C@H](O)[C@@H](O)[C@H](N=C(N)N)[C@@H](O)[C@@H]3N=C(N)N)O[C@@H](C)[C@]2(O)C=O)O[C@@H](CO)[C@H](O)[C@H]1O [STREPTOMYCIN]
[6]
  MIC: 256 µg/mL (≈ 440 µM)

## CN(C)[C@@H]1C(O)=C(C(N)=O)C(=O)[C@@]2(O)C(O)=C3C(=O)c4c(O)cccc4[C@@](C)(O)[C@H]3C[C@@H]12 [TETRACYCLINE]
[4]
  MIC: 16 µg/mL (≈ 36 µM)
[5]
  MIC: 16 µg/mL (≈ 36 µM)

## COc1cc(Cc2cnc(N)nc2N)cc(OC)c1OC [TRIMETHOPRIM]
[7]
  MIC: 1020 µg/mL (≈ 3530 µM)
